# According to paper PMC5814735, “Lithium‐Catalyzed Thiol Alkylation with Tertiary and Secondary Alcohols: Synthesis of 3‐Sulfanyl‐Oxetanes as Bioisosteres” (Chemistry (Weinheim an Der Bergstrasse, Germany), 2017):
# Legend:
# [1] = eLogD, distribution coefficient (LogD) measured by HPLC; type: physicochemical
# Method: (§1) In the context of drug discovery, the distribution coefficient of a compound strongly affects how effectively the drug can reach its intended target, as well as efficacy and pharmacokinetic properties. […] To understand the effect of oxetane sulfides on this key parameter, LogD was measured for compounds 21, 2 d, and 17 d. Replacing the thioester functionality with the oxetane sulfide had the positive effect of lowering the LogD by approximately 1 Log unit (Figure 2).
# (§2) Figure 2 Comparison of physicochemical parameters. eLogD=distribution coefficient (LogD) measured by HPLC. HLM=Clearance in liver microsomes; RRCK=Cell membrane permeability. TEXT PRINTED IN THE PICTURE: 21: eLogD 4.7 | 2d: eLogD 3.8 | 17d: eLogD 2.1 | 20: HLM: 7.0 μL/min/mg; RRCK: 0.1 10^-6 cm/s | 22: HLM: 7.0 μL/min/mg; RRCK: 1.3 10^-6 cm/s DOUBTS OF THE COPYIST ABOUT THIS PICTURE: 2d, eLogD: 3.8 or 3.6 (small print) / 22, RRCK: 1.3 or 1.5 or 1.8 (small print) / 20 and 22, RRCK: exponent -6 is printed very small and could be -5 or -8
# [2] = HLM, clearance in liver microsomes; type: in vitro ADME, human; settings: for clearance profile by human liver microsomes, comparison: 20 compared with 22, in words; for microsomal CLint: human, human liver microsomes
# Method: as §1, §2
# RRCK = RRCK cell membrane permeability; type: in vitro ADME; settings: 20 compared with methane analogue 22, in words
# Method: as §1, §2
# [3] = RRCK cell membrane permeability; type: in vitro ADME; settings: dog, MDCK
# Method: as §1, §2
smiles,measurement,setting,value
COc1ccc(SC2(c3ccc(OC)cc3)COC2)cc1 [2d],chromatographic logD,[1],3.8
same,melting point,,113 to 116 °C
c1ccc(SC2(c3ccccc3)CCC2)cc1 [13c],melting point,,46 to 48 °C
COc1ccc(C2(S(=O)(=O)c3ccc(OC)cc3)COC2)cc1 [17d],chromatographic logD,[1],2.1
same,melting point,,158 to 160 °C
COc1ccc(C2(SCC(N)C(=O)O)COC2)cc1 (stereo not shown) [compound 20],"clearance profile by human liver microsomes, comparison",[2],determined to be the same
same,microsomal CLint,[2],7 µL/min/mg
same,cell permeability compared with analogue,RRCK,slightly lower cell permeability than the corresponding methane analogue 22
same,Papp,[3],0.1 ×10⁻⁶ cm/s
COc1ccc(SC(=O)c2ccc(OC)cc2)cc1 [compound 21],chromatographic logD,[1],4.7
COc1ccc(CSCC(N)C(=O)O)cc1 (stereo not shown) [compound 22],"clearance profile by human liver microsomes, comparison",[2],determined to be the same
same,microsomal CLint,[2],7 µL/min/mg
same,Papp,[3],1.3 ×10⁻⁶ cm/s
